Earlier results, collected in patent US20120245552A1, “Combination Therapy” (POP TEST CORTISOL LLC, priority 2011, published 2012).

Legend:
[1] = target: T1, GCR (Homo sapiens, UniProt P04150); settings: cited from earlier work
T1 sequence (P04150 1-777): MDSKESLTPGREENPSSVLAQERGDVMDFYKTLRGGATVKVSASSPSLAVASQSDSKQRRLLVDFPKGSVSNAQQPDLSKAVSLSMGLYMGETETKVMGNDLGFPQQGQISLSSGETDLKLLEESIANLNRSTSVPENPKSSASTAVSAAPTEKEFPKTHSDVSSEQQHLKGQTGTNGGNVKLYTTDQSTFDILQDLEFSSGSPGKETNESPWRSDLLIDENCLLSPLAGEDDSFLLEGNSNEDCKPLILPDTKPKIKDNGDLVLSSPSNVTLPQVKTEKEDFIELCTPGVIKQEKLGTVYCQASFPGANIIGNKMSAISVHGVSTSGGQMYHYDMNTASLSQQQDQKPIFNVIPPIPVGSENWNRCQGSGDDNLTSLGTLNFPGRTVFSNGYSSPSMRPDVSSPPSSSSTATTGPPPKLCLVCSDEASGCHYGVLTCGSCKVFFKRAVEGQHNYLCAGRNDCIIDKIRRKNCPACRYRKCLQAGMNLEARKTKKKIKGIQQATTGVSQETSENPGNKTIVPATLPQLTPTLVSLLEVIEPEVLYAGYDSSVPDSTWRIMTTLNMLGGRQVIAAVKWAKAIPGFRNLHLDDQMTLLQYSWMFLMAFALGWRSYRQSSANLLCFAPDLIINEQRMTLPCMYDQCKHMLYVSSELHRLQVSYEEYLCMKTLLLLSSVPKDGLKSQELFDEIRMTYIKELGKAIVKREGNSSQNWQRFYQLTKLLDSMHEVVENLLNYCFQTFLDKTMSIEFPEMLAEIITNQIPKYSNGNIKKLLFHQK

[2] = test system: other related steroidal hormone receptors (such as those for estrogen and progesterone); settings: cited from earlier work
[3] = phase I and phase II clinical trials; cited from earlier work

CC#C[C@]1(O)CC[C@H]2[C@@H]3CCC4=CC(=O)CCC4=C3[C@@H](c3ccc4c(c3)OCO4)C[C@@]21C [ORG 34517, (11β,17β)-11-(1,3-benzodioxol-5-yl)-17-hydroxy-17-(1-propynyl)estra-4,9-dien-3-one]
GCR binding affinity [1]: high
cross-binding to other related steroidal hormone receptors [2]: without significant cross-binding
significant toxicities and side effects [3]: none were identified
